Like-named read-outs stand apart in the source and are kept apart here.
How the values were obtained:
S. aureus = experiment: Broth dilution MIC/MBC, BT-antibiotic combinations; assay type: cell-based, Staphylococcus aureus
Description: Materials & Methods. Susceptibility studies were performed by broth dilution in 96-well tissue culture plates (Nalge Nunc International, Denmark) in accordance with NCCLS protocols (National Committee for Clinical Laboratory Standards. (1997). Methods for Dilution Antimicrobial Susceptibility Tests for Bacteria that Grow Aerobically: Approved Standard M7-A2 and Informational Supplement M100-S10. NCCLS, Wayne, Pa., USA).
Briefly, overnight bacterial cultures were used to prepare 0.5 McFarland standard suspensions, which were further diluted 1:50 (˜2×10^6 cfu/mL) in cation-adjusted Mueller-Hinton broth medium (BBL, Cockeysville, Md., USA). BTs (prepared as described above) and antibiotics were added at incremental concentrations, keeping the final volume constant at 0.2 mL. Cultures were incubated for 24 h at 37° C. and turbidity was assessed by absorption at 630 nm using an ELISA plate reader (Biotek Instruments, Winooski, Vt., USA) according to the manufacturer's recommendations. […] Viable bacterial counts (cfu/mL) were determined by standard plating on nutrient agar.
The checkerboard method was used to assess the activity of antimicrobial combinations. The fractional inhibitory concentration index (FICI) and the fractional bactericidal concentration index (FBCI) were calculated, according to Eliopoulos et al. (Eliopoulos and Moellering, (1996) Antimicrobial combinations. In Antibiotics in Laboratory Medicine (Lorian, V., Ed.), pp. 330-96, Williams and Wilkins, Baltimore, Md., USA). Synergy was defined as an FICI or FBCI index of […], no interaction at >0.5-4 and antagonism at >4 (Odds, F C (2003) Synergy, antagonism, and what the chequerboard puts between them. Journal of Antimicrobial Chemotherapy 52:1). Synergy was also defined conventionally as ≧4-fold decrease in antibiotic concentration.

P. aeruginosa = experiment: Checkerboard broth microdilution MIC and FICI; assay type: cell-based, Pseudomonas aeruginosa; details: for MIC (μg/mL) Alone / MIC: compound alone; for MIC: Pseudomonas aeruginosa
Description: (§1) The effects of combinations of microparticulate Bis-EDT and four Bis-EDT analogs prepared as described above, and other agents against representative strains of several Gram-negative pathogenic bacteria were tested. A modification of a common laboratory method was used to determine synergism (FICI≦0.5), enhancement (0.5<FICI≦1.0), antagonism (FICI>4.0) and indifference (1.0<FICI≦4.0) used fractional inhibitory concentrations (FICs) and FIC indices (FICI) (Eliopoulos G and R Moellering. 1991. Antimicrobial combinations. In Antibiotics in Laboratory Medicine, Third Edition, edited by V Lorian. Williams and Wilkins, Baltimore, Md., pp. 432-492; Odds, 2003 J. Antimicrob. Chemother. 52(1):1). The checkerboard technique was used to determine FIC indices and was employed in this study.
(§2) Stock solutions of all test articles were prepared at 40× the final target concentration in the appropriate solvent. […] The final drug concentrations in the FIC assay plates were set to bracket the MIC value of each agent for each test organism, unless the strain was totally resistant to the test agent. […] The test organisms were originally received from clinical sources, or from the American Type Culture Collection. Upon receipt, the isolates were streaked onto Tryptic Soy Agar II (TSA). Colonies were harvested from these plates and a cell suspension was prepared in an appropriate broth growth medium containing cryoprotectant. Aliquots were then frozen at −80° C. The frozen seeds of the organisms to be tested in a given assay were thawed, streaked for isolation onto TSA plates, and incubated at 35° C. All organisms were tested in Mueller Hinton II Broth (Becton Dickinson, Lot No. 9044411). The broth was prepared at 1.05× normal weight/volume to offset the 5% volume of the drugs in the final test plates.
(§3) Minimal Inhibitory Concentration (MIC) values were previously determined using the broth microdilution method for aerobic bacteria (Clinical and Laboratory Standards Institute (CLSI). Methods for Dilution Antimicrobial Susceptibility Tests for Bacteria That Grow Aerobically; Approved Standard—Eighth Edition. CLSI document M07-A8 [ISBN 1-56238-689-1]. Clinical and Laboratory Standards Institute, 940 West Valley Road, Suite 1400, Wayne, Pa. 19087-1898 USA, 2009.).
(§4) FIC values were determined using a broth microdilution method previously described (Sweeney et al., 2003 Antimicrob. Agents Chemother. 47(6):1902-1906). To prepare the test plates, automated liquid handlers (Multidrop 384, Labsystems, Helsinki, Finland; Biomek 2000 and Multimek 96, Beckman Coulter, Fullerton Calif.) were used to conduct serial dilutions and liquid transfers.
(§5) The appropriate wells of standard 96-well microdilution plates (Falcon 3918) were filled with 150 μL of the appropriate solvent in columns 2-12 using the Multidrop 384. Three hundred microliters of each secondary test drug was added to each well in Column 1 of the plates. These plates were used to prepare the drug “mother plates” which provided the serial drug dilutions for the drug combination plates. The Biomek 2000 was used to transfer 150 μL of each secondary drug solution (40×) from the wells in Column 1 of the mother plate and to make eleven 2-fold serial dilutions. Mother plates of Bis-EDT (and analogs) were serial diluted top to bottom by hand, using a multichannel pipette. Two mother plates, one for each secondary drug and one for Bis-EDT (or analogs), were combined to form a “checkerboard” pattern by transfer of equal volumes (using a multi-channel pipette) to the drug combination plate. Row H and Column 12 each contained serial dilutions of one of the agents alone for determination of the MIC.
(§6) The “daughter plates” were loaded with 180 μL of test medium using the Multidrop 384. Then, the Multimek 96 was used to transfer 10 μL of drug solution from each well of the drug combination mother plate to each corresponding well of the daughter plate in a single step.

[1] = system: Gram-negative pathogenic bacteria; experiment: Checkerboard broth microdilution MIC and FICI; assay type: cell-based; details: for MIC (μg/mL) Alone / MIC: compound alone; for FICI, Fractional Inhibitory Concentration Index: in combination with Cefotaxime; for MIC: Klebsiella pneumoniae
Description: as §1, §2, §3, §4, §5, §6

[2] = system: Staphylococcus aureus (SA, MRSA); experiment: Single-point BisEDT-antibiotic combination FICI; assay type: cell-based
Enterococcus faecalis = experiment: Single-point BisEDT-antibiotic combination FICI; assay type: cell-based; details: E Fc 3121
[3] = system: Streptococcus pneumoniae (SP, PRSP); experiment: Single-point BisEDT-antibiotic combination FICI; details: PRSP 5348
[4] = MRSA S2446-3, BE = 0.2 μg/ml BisEDT
[5] = S. aureus ATCC 25923, BE = 0.2 μg/ml BisEDT
[6] = P. aeruginosa 103, in combination with Cefepime
[7] = P. aeruginosa 103, in combination with Cefotaxime
[8] = P. aeruginosa 1381, in combination with Cefepime
[9] = P. aeruginosa 1384, in combination with Cefepime
[10] = P. aeruginosa 1474, in combination with Cefepime
[11] = P. aeruginosa 1479, in combination with Cefepime
[12] = P. aeruginosa 2566, in combination with Cefepime
[13] = P. aeruginosa 2568, in combination with Cefepime

## NC[C@@H]1O[C@H](O[C@H]2[C@@H](O)[C@H](O[C@@H]3[C@@H](O)[C@H](N)C[C@H](N)[C@H]3O[C@H]3O[C@H](CN)[C@@H](O)[C@H](O)[C@H]3N)O[C@@H]2CO)[C@H](N)[C@@H](O)[C@@H]1O [NEO, Neomycin]
S. aureus; [4]
  Δ: 1.6
S. aureus; MRSA S2446-3, antibiotic alone
  MIC: 13.400 µg/mL
S. aureus; MRSA S2446-3, with 0.2 μg/ml BisEDT
  MIC + BE: 8.500 µg/mL
S. aureus; [5]
  Δ: 2.5
S. aureus; S. aureus ATCC 25923, antibiotic alone
  MIC: 0.500 µg/mL
S. aureus; S. aureus ATCC 25923, with 0.2 μg/ml BisEDT
  MIC + BE: 0.200 µg/mL

## C1C[S][Bi]([S]CC[S][Bi]2[S]CC[S]2)[S]1 [MB-1B-3, bismuth-1,2-ethane dithiol]
P. aeruginosa; P. aeruginosa 103
  MIC (μg/mL) Alone: 1 µg/mL
P. aeruginosa; [6]
  FICI, Fractional Inhibitory Concentration Index: 0.71
P. aeruginosa; [7]
  FICI, Fractional Inhibitory Concentration Index: 0.96
P. aeruginosa; P. aeruginosa 1381
  MIC (μg/mL) Alone: 1 µg/mL
P. aeruginosa; [8]
  FICI, Fractional Inhibitory Concentration Index: 1.29
P. aeruginosa; P. aeruginosa 1384
  MIC (μg/mL) Alone: 1 µg/mL
P. aeruginosa; [9]
  FICI, Fractional Inhibitory Concentration Index: 0.79
P. aeruginosa; P. aeruginosa 1474
  MIC (μg/mL) Alone: 1 µg/mL
P. aeruginosa; [10]
  FICI, Fractional Inhibitory Concentration Index: 0.79
P. aeruginosa; P. aeruginosa 1479
  MIC (μg/mL) Alone: 1 µg/mL
P. aeruginosa; [11]
  FICI, Fractional Inhibitory Concentration Index: 1.12
P. aeruginosa; P. aeruginosa 2566
  MIC (μg/mL) Alone: 0.5 µg/mL
P. aeruginosa; [12]
  FICI, Fractional Inhibitory Concentration Index: 1.37
P. aeruginosa; P. aeruginosa 2568
  MIC (μg/mL) Alone: 1 µg/mL
P. aeruginosa; [13]
  FICI, Fractional Inhibitory Concentration Index: 0.79
[1]; K. pneumoniae 1346
  MIC (μg/mL) Alone: 2 µg/mL
  FICI, Fractional Inhibitory Concentration Index: 1.23
[1]; K. pneumoniae 1355
  MIC (μg/mL) Alone: 1 µg/mL
  FICI, Fractional Inhibitory Concentration Index: 2.29
[1]; K. pneumoniae 2238
  MIC (μg/mL) Alone: 1 µg/mL
  FICI, Fractional Inhibitory Concentration Index: 1.29
[1]; K. pneumoniae 2541
  MIC (μg/mL) Alone: 2 µg/mL
  FICI, Fractional Inhibitory Concentration Index: 1.23
[1]; K. pneumoniae 2546
  MIC (μg/mL) Alone: 1 µg/mL
  FICI, Fractional Inhibitory Concentration Index: 1.12
[1]; K. pneumoniae 2549
  MIC (μg/mL) Alone: 1 µg/mL
  FICI, Fractional Inhibitory Concentration Index: 0.79

## C[C@H]1COc2c(N3CCN(C)CC3)c(F)cc3c(=O)c(C(=O)O)cn1c23 [Levofloxacin]
[2]; MRSA 773
  FICI, single-point BisEDT-antibiotic combination: 1.11
[2]; SA 100
  FICI, single-point BisEDT-antibiotic combination: 1.23
Enterococcus faecalis
  FICI, single-point BisEDT-antibiotic combination: 1.08
[3]
  FICI, single-point BisEDT-antibiotic combination: 0.70

## NC[C@@H]1O[C@H](O[C@H]2[C@@H](O)[C@H](O[C@@H]3[C@@H](O)[C@H](N)C[C@H](N)[C@H]3O[C@H]3O[C@H](CO)[C@@H](O)[C@H](O)[C@H]3N)O[C@@H]2CO)[C@H](N)[C@@H](O)[C@@H]1O [PARO, Paromomycin]
S. aureus; [4]
  Δ: 1.8
S. aureus; [5]
  Synergy: + (Synergy was also defined conventionally as ≧4-fold decrease in antibiotic concentration)
  Δ: 5.7
S. aureus; Staphylococcus aureus, ATCC25923, S. aureus ATCC 25923, antibiotic alone, read-out: MIC
  MIC: 1.08 µg/mL
S. aureus; Staphylococcus aureus, ATCC25923, S. aureus ATCC 25923, with 0.2 μg/ml BisEDT, read-out: MIC + BE
  MIC: 0.188 µg/mL
S. aureus; Staphylococcus aureus, MRSA, MRSA S2446-3, antibiotic alone, read-out: MIC
  MIC: 335 µg/mL
S. aureus; Staphylococcus aureus, MRSA, MRSA S2446-3, with 0.2 μg/ml BisEDT, read-out: MIC + BE
  MIC: 183 µg/mL

## OCC(S)CS.[Bi] (stereo not drawn) [MB-2B, bismuth-2,3-dimercaptopropanol]
P. aeruginosa; P. aeruginosa 103, in combination with Aztreonam
  FICI, Fractional Inhibitory Concentration Index: 1.08
P. aeruginosa; [6]
  FICI, Fractional Inhibitory Concentration Index: 0.61
P. aeruginosa; [7]
  FICI, Fractional Inhibitory Concentration Index: 1.11
P. aeruginosa; P. aeruginosa 1381
  MIC (μg/mL) Alone: 4 µg/mL
P. aeruginosa; P. aeruginosa 1381, in combination with Aztreonam
  FICI, Fractional Inhibitory Concentration Index: 0.89
P. aeruginosa; [8]
  FICI, Fractional Inhibitory Concentration Index: 1.09
P. aeruginosa; P. aeruginosa 1384
  MIC (μg/mL) Alone: 4 µg/mL
P. aeruginosa; P. aeruginosa 1384, in combination with Aztreonam
  FICI, Fractional Inhibitory Concentration Index: 0.91
P. aeruginosa; [9]
  FICI, Fractional Inhibitory Concentration Index: 0.94
P. aeruginosa; P. aeruginosa 1474, in combination with Aztreonam
  FICI, Fractional Inhibitory Concentration Index: 0.54
P. aeruginosa; [10]
  FICI, Fractional Inhibitory Concentration Index: 0.98
P. aeruginosa; P. aeruginosa 1479, in combination with Aztreonam
  FICI, Fractional Inhibitory Concentration Index: 0.87
P. aeruginosa; [11]
  FICI, Fractional Inhibitory Concentration Index: 1.11
P. aeruginosa; P. aeruginosa 2566, in combination with Aztreonam
  FICI, Fractional Inhibitory Concentration Index: 0.91
P. aeruginosa; [12]
  FICI, Fractional Inhibitory Concentration Index: 1.23
P. aeruginosa; P. aeruginosa 2568, in combination with Aztreonam
  FICI, Fractional Inhibitory Concentration Index: 0.87
P. aeruginosa; [13]
  FICI, Fractional Inhibitory Concentration Index: 1.11
P. aeruginosa; read-out: MIC (μg/mL) Alone, P. aeruginosa 1381
  MIC: 8 µg/mL
P. aeruginosa; read-out: MIC (μg/mL) Alone, P. aeruginosa 1384
  MIC: 8 µg/mL
[1]; K. pneumoniae 1346
  FICI, Fractional Inhibitory Concentration Index: 1.19
[1]; K. pneumoniae 1355
  FICI, Fractional Inhibitory Concentration Index: 1.19
[1]; K. pneumoniae 2238
  FICI, Fractional Inhibitory Concentration Index: 1.64
[1]; K. pneumoniae 2541
  FICI, Fractional Inhibitory Concentration Index: 0.64
[1]; K. pneumoniae 2546
  FICI, Fractional Inhibitory Concentration Index: 1.16
[1]; K. pneumoniae 2549
  FICI, Fractional Inhibitory Concentration Index: 0.83
[1]; read-out: MIC (μg/mL) Alone, K. pneumoniae 1346
  MIC: 4 µg/mL
[1]; read-out: MIC (μg/mL) Alone, K. pneumoniae 1355
  MIC: 4 µg/mL
[1]; read-out: MIC (μg/mL) Alone, K. pneumoniae 2238
  MIC: 4 µg/mL
[1]; read-out: MIC (μg/mL) Alone, K. pneumoniae 2541
  MIC: 8 µg/mL
[1]; read-out: MIC (μg/mL) Alone, K. pneumoniae 2546
  MIC: 8 µg/mL
[1]; read-out: MIC (μg/mL) Alone, K. pneumoniae 2549
  MIC: 8 µg/mL

Source: patent US9408393B2, “Bismuth-thiols as antiseptics for agricultural, industrial and other uses” (Microbion Corporation, priority 2010, dated 2016)
